Test: presence of drug in the epidermis after the composition is applied to the skin
Format: in vivo
Conditions: after the composition containing the drug has been applied to the skin
Excerpt: In the present invention, the Hsieh enhancer is used in a different way, that is, as a penetration-facilitator for delivery of drug to the dermal layer of the skin without significant, if any, systemic absorption of the drug into the blood stream of the user.

Structure (SMILES): CO[C@H]1C[C@@H]2CC[C@@H](C)[C@@](O)(O2)C(=O)C(=O)N2CCCC[C@H]2C(=O)O[C@H]([C@H](C)C[C@@H]2CC[C@@H](O)[C@H](OC)C2)CC(=O)[C@H](C)/C=C(\C)[C@@H](O)[C@@H](OC)C(=O)[C@H](C)C[C@H](C)/C=C/C=C/C=C/1C [rapamycin]
- drug observed to be present in the epidermis, time after application: 72 h
